“Also recorded” adds a separate entry of the source.
Legend:
Arabidopsis thaliana = details: no DAAO; cited from earlier work
plants that express DAAO = details: at the level of 30 mM; cited from earlier work
[1] = tested on: transgenic Arabidopsis root explants / leaf explants; details: 0.1 mM GAN; cited from earlier work
HSVtk transgene = experiment: CRISPR editing after agro-injection, decapitation and ganciclovir selection: HSVtk; format: in vivo, tomato; details: ganciclovir counter-selection of HSVtk+Cas9 lines, regenerated shoots
Description: In example two, we decapitated the seedlings at the first internode so that cells that were genome edited could form a callus, regenerate new meristems and stems. The Cas9 expressing mother plants were injected with the viral replicon vector and decapitated at the epicotyl a week later. The decapitation site was covered with parafilm and an aluminum foil cap for 4 weeks. Any axillary buds in the cotyledon node were removed. When a solid callus mass was visible (approx. four weeks after decapitation) at the wound site, the caps were removed and ganciclovir was applied (2 mM concentration of the compound in a carbomer gel). Every meristem that developed into a healthy shoot was detached and propagated to fruiting. Mutation level and type were analyzed by PCR and sequencing of amplicons flanking the target genomic sites. Regenerated stems were evaluated for mutation in the marker and POTATO LEAF (C) sequences and the expected change in leaf shape typical of a C knockout. We evaluated the correlation between the Cas9 modified HSVtk and C.
Agrobacterium glycerol stocks transformed with pTRV or pTAV vectors were streaked onto LB plates containing appropriate antibiotics based on plasmids and agro strains. […] After 24 hours, cultures were measured for OD600 using spectrophotometer. […] The next day, OD600 was measured for each culture. […]

transgene-free plants = experiment: Toxicity of GAN: shoot regeneration of decapitated transgene-free (wildtype) plants; format: in vivo, tomato; details: for Regeneration of transgene-free plants (control): one month after decapitation
Description: (§1) Roughly one week later, seedlings were decapitated at the injection site using a sharp razor blade. Immediately after decapitation, parafilm was stretched over the decapitation site, to prevent the stem from drying out, and aluminum foil was added to cover the parafilm, shading the cut site to promote callus formation. Plants were returned to growth chamber and monitored for axillary shoot formation and callus regeneration. New shoots forming from the cotyledon axillary buds were removed using forceps as soon as they were observed.
(§2) After 1-2 weeks, the cut site of the stem began forming a white callus, and selection gel was applied. Carbomer 940 powder was added to a water solution containing selection agents to make 0.5% w/v carbomer gel. The pH was adjusted with KOH to 7.5 to thicken the gel. The gel containing the selecting agents was added to the decapitated plants by putting a droplet of the gel to the wound site of the shoot using spatula, about 40-50 uL in volume. Parafilm and aluminum foil was placed back on the cut site, and plants were returned to growth chamber. […] Parafilm and foil were removed from decapitation sites, and shoots were allowed to grow.
(§3) Solutions of D-amino acids were made from D-valine powder (MP Biomedicals 0210322625) and D/L-isoleucine powder (MP Biomedicals 0210208225). Zirgan (ganciclovir ophthalmic gel) 0.15%, an antiviral eye gel was used in making GAN gel, as well as in direct application on decapitated plants.
(§4) HSVtk (no Cas9) plants were germinated and grown in soil. They were decapitated about three weeks after they were sown. The selecting agent, GAN (Ganciclovir), was applied to the decapitated plants after the decapitation. We made a series of GAN gels with different GAN concentrations: 0.1 mM, 1 mM, and 4.5 mM. The 0.1 mM and 1 mM GAN gel was made by diluting the Zirgan ganciclovir ophthalmic gel (4.5 mM GAN) into 0.2% carbomer gel. The two gels were mixed in a 4 mL plastic vial by shaking. Around […] GAN gel was applied to each plant each time, and the gel application was renewed every three to five days.
(§5) We tested whether the carbomer gel itself would have an influence on plant regeneration. We included a group of wildtype plants that received no treatment, and a group of wildtype plants that received carbomer gel containing no GAN. All plants in both groups, except one plant in the control set, regenerated new shoots. Therefore, we eliminated the possibility of regeneration interference from the gel.
(§6) One month after the decapitation and application of GAN selection, the regeneration of shoots was evaluated. In the control plants with 0 mM GAN treatment, including HSVtk and wildtype plants, almost all the plants regenerated new shoots. […] Thus, we concluded that GAN was toxic to both HSVtk plants and wildtype plants at a concentration higher than 0.1 mM. However, as the GAN concentration increased, HSVtk plants became more sensitive to it than wildtype plants. At a concentration of 4.5 mM, GAN could prevent regeneration of the HSVtk plants, while still allowing some wildtype plants to regenerate. Therefore we decided to use a 2 mM dose as the effective selecting agent in our future experiments.

HSVtk plants = experiment: Toxicity of GAN: shoot regeneration of decapitated HSVtk plants; format: in vivo, tomato; details: for Regeneration of HSVtk plants: one month after decapitation
Description: as §1, §2, §3, §4, §5, §6

transgene-free explants = details: 0.1 mM GAN; cited from earlier work

C[C@@H](N)C(=O)O [D-alanine]
influence on plant growth (Arabidopsis thaliana): inhibit plant growth even at a low concentration

CC[C@@H](C)[C@@H](N)C(=O)O [D-isoleucine]
effect on plants that express DAAO (plants that express DAAO): deleterious effects | influence on plant growth (Arabidopsis thaliana): very little influence on plant growth

N[C@H](CO)C(=O)O [D-serine]
influence on plant growth (Arabidopsis thaliana): inhibit plant growth even at a low concentration

Nc1nc(O)c2ncn(COC(CO)CO)c2n1 [GAN, ganciclovir]
shoot regeneration on transgenic root explants or callus formation on leaf explants [1]: significantly reduce | escapes at current ganciclovir concentrations (HSVtk transgene): ~60% | Regeneration of transgene-free plants (plants regenerated out of treated) (transgene-free plants; 0.1 mM GAN): (14 out of 15) | Regeneration of transgene-free plants (control) (transgene-free plants; 0.1 mM GAN gel): 93% | Regeneration of transgene-free plants (plants regenerated out of treated) (transgene-free plants; 1 mM GAN): (8 out of 15) | Regeneration of transgene-free plants (control) (transgene-free plants; 1 mM GAN gel): 53% | Regeneration of transgene-free plants (plants regenerated out of treated) (transgene-free plants; 4.5 mM GAN): 6 out of 23 and (6 out of 23) | Regeneration of transgene-free plants (control) (transgene-free plants; 4.5 mM GAN gel): 26% | Regeneration of HSVtk plants (plants regenerated out of treated) (HSVtk plants; 0.1 mM GAN): (16 out of 18) | Regeneration of HSVtk plants (HSVtk plants; 0.1 mM GAN gel on decapitated plants): 89% | Regeneration of HSVtk plants (plants regenerated out of treated) (HSVtk plants; 1 mM GAN): (4 out of 16) | Regeneration of HSVtk plants (HSVtk plants; 1 mM GAN gel on decapitated plants): 25% | Regeneration of HSVtk plants (plants regenerated out of treated) (HSVtk plants; 4.5 mM GAN): none of the HSVtk plants regenerated; also recorded: (0 out of 10) | Regeneration of HSVtk plants (HSVtk plants; 4.5 mM GAN gel on decapitated plants): 0% | Concentration at which GAN was toxic to both HSVtk plants and wildtype plants (HSVtk plants; decapitated plants, GAN gel, HSVtk and wildtype plants): higher than 0.1 mM | regeneration of transgene-free explants (transgene-free explants): does not affect

CC(C)[C@@H](N)C(=O)O [D-valine]
effect on plants that express DAAO (plants that express DAAO): deleterious effects | influence on plant growth (Arabidopsis thaliana): very little influence on plant growth

Source: patent US20210348177A1, “GENERATION OF HERITABLY GENE-EDITED PLANTS WITHOUT TISSUE CULTURE” (priority 2018, published 2021)
